21 molecules from US9840513B2 (AbbVie S.à.r.l., priority 2015, dated 2017) can be followed below.

SMILES strings stand for the structures. pEC50: −log10 of the molar value.

In the experiment the target is T1, F508delCFTR cell surface expression in CFBE41o-F508delCFTR-HRP cells (Homo sapiens, UniProt P13569, DEL508-508).
T1 construct: fused on or other part: Horseradish peroxidase (HRP) reporter inserted in the fourth exofacial (extracellular) loop of CFTR; expression is doxycycline-inducible
As to the kind of experiment: Cell Surface Expression-Horse Radish Peroxidase (CSE-HRP) Assay. Format: cell-based. The note with it: for pEC50: CFBE41o-F508delCFTR-HRP cells, 18-24 hours at 33° C., 8-point curve, highest concentration 20 μM; for Maximum % activity (%): maximum at any tested concentration, normalized to on-plate positive control (3 μM). In short, it runs like this: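 Correctors incubated 18-24 h at 33 °C on doxycycline-induced (0.5 μg/mL, 72 h) CFBE41o-F508delCFTR-HRP cells, 3-fold series from 20 μM. After DPBS washes, luminol luminescence read; activity expressed relative to DMSO and a 3 μM positive control, EC50 fitted from triplicate plates.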

T1 sequence (P13569 with tags, fused parts or gaps DEL508-508 limits assumed): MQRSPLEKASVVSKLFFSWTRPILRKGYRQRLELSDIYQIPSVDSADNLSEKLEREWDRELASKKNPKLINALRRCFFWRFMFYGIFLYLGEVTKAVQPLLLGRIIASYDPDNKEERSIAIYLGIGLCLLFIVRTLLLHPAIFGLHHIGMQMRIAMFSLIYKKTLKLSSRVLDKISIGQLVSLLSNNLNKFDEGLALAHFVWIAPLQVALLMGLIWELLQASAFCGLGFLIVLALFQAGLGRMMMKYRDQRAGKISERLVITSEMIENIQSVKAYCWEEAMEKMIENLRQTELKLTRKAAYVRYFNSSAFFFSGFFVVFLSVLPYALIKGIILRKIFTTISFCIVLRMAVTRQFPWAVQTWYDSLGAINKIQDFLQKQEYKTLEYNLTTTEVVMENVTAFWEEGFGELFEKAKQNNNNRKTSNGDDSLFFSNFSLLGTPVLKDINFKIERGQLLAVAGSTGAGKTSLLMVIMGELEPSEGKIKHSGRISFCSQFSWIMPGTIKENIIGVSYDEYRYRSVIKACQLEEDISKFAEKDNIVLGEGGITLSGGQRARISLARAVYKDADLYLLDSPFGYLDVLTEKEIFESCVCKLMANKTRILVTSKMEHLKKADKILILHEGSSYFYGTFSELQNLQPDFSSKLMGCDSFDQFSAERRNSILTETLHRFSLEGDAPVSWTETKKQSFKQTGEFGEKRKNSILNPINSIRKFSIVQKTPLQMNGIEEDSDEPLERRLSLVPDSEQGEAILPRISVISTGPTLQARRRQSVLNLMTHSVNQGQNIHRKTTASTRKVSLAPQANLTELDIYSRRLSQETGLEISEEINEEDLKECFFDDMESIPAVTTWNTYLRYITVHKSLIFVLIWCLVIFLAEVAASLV
T1 sequence (P13569 919-1480 limits assumed, stated change not applied): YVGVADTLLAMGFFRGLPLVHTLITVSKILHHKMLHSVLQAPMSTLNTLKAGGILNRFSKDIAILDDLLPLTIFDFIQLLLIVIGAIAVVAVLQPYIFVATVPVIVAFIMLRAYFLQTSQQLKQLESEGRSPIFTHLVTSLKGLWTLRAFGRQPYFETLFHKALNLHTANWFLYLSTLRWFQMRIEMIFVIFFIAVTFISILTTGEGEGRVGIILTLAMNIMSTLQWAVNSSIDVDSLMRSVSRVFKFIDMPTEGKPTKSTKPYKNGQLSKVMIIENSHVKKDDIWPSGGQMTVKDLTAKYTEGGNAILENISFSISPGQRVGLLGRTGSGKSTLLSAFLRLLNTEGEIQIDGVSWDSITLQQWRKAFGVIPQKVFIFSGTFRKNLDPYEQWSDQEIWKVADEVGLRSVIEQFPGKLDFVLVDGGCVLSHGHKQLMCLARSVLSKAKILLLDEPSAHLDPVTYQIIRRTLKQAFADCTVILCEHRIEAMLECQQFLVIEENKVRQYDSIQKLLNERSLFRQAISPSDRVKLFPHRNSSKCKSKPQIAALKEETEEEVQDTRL

Turning to `COc1ccc2c(c1)O[C@@H](c1ccc(Br)nc1)C[C@H]2NC(=O)[C@@]1(C)COc2cc3c(cc21)OC(F)(F)O3` [Example 176, (7R)—N-[(2R,4R)-2-(6-bromopyridin-3-yl)-7-methoxy-3,4-dihydro-2H-1-benzopyran-4-yl]-2,2-difluoro-7-methyl-6,7-dihydro-2H-furo[2,3-f][1,3]benzodioxole-7-carboxamide], the pEC50 is 6.57 and the “Maximum % activity (%)” value was 118%.
The matching figures for `COc1ccc2c(c1)O[C@@H](c1ccc(C(=O)N3C[C@H](O)[C@@H](O)C3)cn1)C[C@H]2NC(=O)[C@@]1(C)COc2cc3c(cc21)OC(F)(F)O3` [Example 249, (7R)—N-[(2R,4R)-2-{5-[(3S,4S)-3,4-dihydroxypyrrolidine-1-carbonyl]pyridin-2-yl}-7-methoxy-3,4-dihydro-2H-1-benzopyran-4-yl]-2,2-difluoro-7-methyl-6,7-dihydro-2H-furo[2,3-f][1,3]benzodioxole-7-carboxamide]: 7.00 and 110%.
Taken in the same sequence, the figures for `COc1ccc2c(c1)O[C@H](COC[C@H](O)CO)C[C@@H]2NC(=O)[C@@]1(C)COc2cc3c(cc21)OC(F)(F)O3` [Example 275, (7R)—N-[(2S,4S)-2-{[(2R)-2,3-dihydroxypropoxy]methyl}-7-methoxy-3,4-dihydro-2H-1-benzopyran-4-yl]-2,2-difluoro-7-methyl-6,7-dihydro-2H-furo[2,3-f][1,3]benzodioxole-7-carboxamide] were under 4.70 and 7%.
Taken in the same sequence, the figures for `Cc1ccc(NC(=O)C2(C)COc3cc4c(cc32)OC(F)(F)O4)nc1-c1cccc(C(N)=O)c1` (stereo not drawn) [Example 74, N-[6-(3-carbamoylphenyl)-5-methylpyridin-2-yl]-2,2-difluoro-7-methyl-6,7-dihydro-2H-furo[2,3-f][1,3]benzodioxole-7-carboxamide] were 6.15 and 105%.
For `C[C@]1(C(=O)N[C@@H]2C[C@H]([C@H]3CC[C@H](C(=O)N4CCN(CCO)CC4)CC3)Oc3cc(OC(F)(F)F)ccc32)COc2cc3c(cc21)OC(F)(F)O3` [Example 266, (7R)-2,2-difluoro-N-[(2R,4R)-2-{trans-4-[4-(2-hydroxyethyl)piperazine-1-carbonyl]cyclohexyl}-7-(trifluoromethoxy)-3,4-dihydro-2H-1-benzopyran-4-yl]-7-methyl-6,7-dihydro-2H-furo[2,3-f][1,3]benzodioxole-7-carboxamide], the pEC50 is 6.96 and the “Maximum % activity (%)” value stood at 160%.
The matching figures for `COc1ccc2c(c1)O[C@@H](C1CCC(C(=O)O)CC1)C[C@H]2NC(=O)[C@]1(C)COc2cc3c(cc21)OC(F)(F)O3` (stereo partly drawn) [Example 292, 4-[(2R,4R)-4-{[(7S)-2,2-difluoro-7-methyl-6,7-dihydro-2H-furo[2,3-f][1,3]benzodioxole-7-carbonyl]amino}-7-methoxy-3,4-dihydro-2H-1-benzopyran-2-yl]cyclohexane-1-carboxylic acid]: 5.12 and 99%.
Taken in the same sequence, the figures for `C[C@]1(C(=O)N[C@@H]2C[C@H]([C@H]3CC[C@H](C(=O)N4C[C@@H](O)[C@H](O)C4)CC3)Oc3cc(OC(F)(F)F)ccc32)COc2cc3c(cc21)OC(F)(F)O3` [Example 255, (7R)—N-[(2R,4R)-2-{trans-4-[(3R,4R)-3,4-dihydroxypyrrolidine-1-carbonyl]cyclohexyl}-7-(trifluoromethoxy)-3,4-dihydro-2H-1-benzopyran-4-yl]-2,2-difluoro-7-methyl-6,7-dihydro-2H-furo[2,3-f][1,3]benzodioxole-7-carboxamide] were 7.05 and 158%.
Consider `C[C@]1(C(=O)Nc2cccc(N3CCC(S(C)(=O)=O)C3)n2)COc2cc3c(cc21)OC(F)(F)O3` (stereo partly drawn) [Example 109, (7R)-2,2-difluoro-N-{6-[3-(methanesulfonyl)pyrrolidin-1-yl]pyridin-2-yl}-7-methyl-6,7-dihydro-2H-furo[2,3-f][1,3]benzodioxole-7-carboxamide], for which the negative logarithm of the EC50 (pEC50) is 6.24 and the “Maximum % activity (%)” value is reported as 89%.
The matching figures for `C[C@]1(C(=O)Nc2cc3cc(C4(CO)CCOCC4)n(C[C@@H](O)CO)c3cc2F)COc2cc3c(cc21)OC(F)(F)O3` [Example 170, (7R)—N-{1-[(2R)-2,3-dihydroxypropyl]-6-fluoro-2-[4-(hydroxymethyl)oxan-4-yl]-1H-indol-5-yl}-2,2-difluoro-7-methyl-6,7-dihydro-2H-furo[2,3-f][1,3]benzodioxole-7-carboxamide]: 5.90 and 65%.
The matching figures for `CC(C)(CO)[C@@H]1Cc2cc(NC(=O)[C@@]3(C)COc4cc5c(cc43)OC(F)(F)O5)c(F)cc2N1C[C@@H](O)CO` (single isomer, unassigned) [Example 141]: 6.02 and 39%.
On to `COc1ccc2c(c1)O[C@@H](c1ccc(C(C)=O)cn1)C[C@H]2NC(=O)[C@@]1(C)COc2cc3c(cc21)OC(F)(F)O3` [Example 180, (7R)—N-[(2R,4R)-2-(5-acetylpyridin-2-yl)-7-methoxy-3,4-dihydro-2H-1-benzopyran-4-yl]-2,2-difluoro-7-methyl-6,7-dihydro-2H-furo[2,3-f][1,3]benzodioxole-7-carboxamide], for which the negative logarithm of the EC50 (pEC50) was 7.70 and the “Maximum % activity (%)” value is listed as 124%.
As for `Cc1ccc(NC(=O)[C@@]2(C)CCc3c2ccc2c3OCO2)cc1-c1cccc(C(=O)O)c1` (single isomer, unassigned) [Example 38], the pEC50 is 5.34 and the “Maximum % activity (%)” value was determined as 22%.
Taken in the same sequence, the figures for `COC(=O)c1cccc([C@H]2C[C@@H](NC(=O)C3(C)CCc4cc5c(cc43)OC(F)(F)O5)c3ccc(OC)cc3O2)c1` (stereo partly drawn) [Example 52, methyl 3-{(2R,4R)-4-[(2,2-difluoro-5-methyl-6,7-dihydro-2H,5H-indeno[5,6-d][1,3]dioxole-5-carbonyl)amino]-7-methoxy-3,4-dihydro-2H-1-benzopyran-2-yl}benzoate] were 6.02 and 77%.
As for `COc1cc2c(cc1Br)[C@H](NC(=O)[C@@]1(C)COc3cc4c(cc31)OC(F)(F)O4)C[C@H]([C@H]1CC[C@H](C(=O)O)CC1)O2` [Example 290, trans-4-[(2R,4R)-6-bromo-4-{[(7R)-2,2-difluoro-7-methyl-6,7-dihydro-2H-furo[2,3-f][1,3]benzodioxole-7-carbonyl]amino}-7-methoxy-3,4-dihydro-2H-1-benzopyran-2-yl]cyclohexane-1-carboxylic acid], the pEC50 is 6.28 and the “Maximum % activity (%)” value amounted to 189%.
Take `C[C@]1(C(=O)Nc2cccc(N3CCCCC3)n2)COc2cc3c(cc21)OC(F)(F)O3` [Example 119, (7R)-2,2-difluoro-7-methyl-N-[6-(piperidin-1-yl)pyridin-2-yl]-6,7-dihydro-2H-furo[2,3-f][1,3]benzodioxole-7-carboxamide]: the pEC50 was 5.93 and the “Maximum % activity (%)” value is given as 136%.
Consider `C[C@]1(C(=O)N[C@H]2C[C@@H]([C@H]3CC[C@H](C(=O)O)CC3)Oc3cc(OC(F)F)ccc32)COc2cc3c(cc21)OC(F)(F)O3` [Example 163, trans-4-[(2S,4S)-7-(difluoromethoxy)-4-{[(7R)-2,2-difluoro-7-methyl-6,7-dihydro-2H-furo[2,3-f][1,3]benzodioxole-7-carbonyl]amino}-3,4-dihydro-2H-1-benzopyran-2-yl]cyclohexane-1-carboxylic acid], for which the negative-log EC50 (pEC50) is 6.09 and the “Maximum % activity (%)” value worked out at 75%.
The matching figures for `C[C@]1(C(=O)N[C@@H]2C[C@H](c3ccc(C(=O)O)cc3)Oc3ccccc32)CCc2cc3c(cc21)OC(F)(F)O3` [Example 59, 4-[(2R,4R)-4-{[(5S)-2,2-difluoro-5-methyl-6,7-dihydro-211,51-indeno[5,6-d][1,3]dioxole-5-carbonyl]amino}-3,4-dihydro-2H-1-benzopyran-2-yl]benzoic acid]: 5.56 and 50%.
`Cc1c(C(=O)O)ncn1-c1ccc(C(F)(F)F)cc1NC(=O)C1(C)COc2cc3c(cc21)OC(F)(F)O3` (stereo not drawn) [Example 62, 1-{2-[(2,2-difluoro-7-methyl-6,7-dihydro-2H-furo[2,3-f][1,3]benzodioxole-7-carbonyl)amino]-4-(trifluoromethyl)phenyl}-5-methyl-1H-imidazole-4-carboxylic acid]: the pEC50 is under 4.70 and the “Maximum % activity (%)” value is listed as 12%.
The matching figures for `Cc1c(C(=O)O)cccc1-c1cccc(NC(=O)[C@@]2(C)COc3cc4c(cc32)OC(F)(F)O4)n1` [Example 122, 3-(6-{[(7R)-2,2-difluoro-7-methyl-6,7-dihydro-2H-furo[2,3-f][1,3]benzodioxole-7-carbonyl]amino}pyridin-2-yl)-2-methylbenzoic acid]: 5.71 and 173%.
Turning to `CC1(C)OC[C@@H](Cn2nc(-c3ccccc3)cc(NC(=O)[C@@]3(C)COc4cc5c(cc43)OC(F)(F)O5)c2=O)O1` [Example 26, (7R)—N-(2-{[(4R)-2,2-dimethyl-1,3-dioxolan-4-yl]methyl}-3-oxo-6-phenyl-2,3-dihydropyridazin-4-yl)-2,2-difluoro-7-methyl-6,7-dihydro-2H-furo[2,3-f][1,3]benzodioxole-7-carboxamide], the pEC50 was 6.01 and the “Maximum % activity (%)” value turned out to be 85%.
The matching figures for `C[C@]1(C(=O)Nc2cnc(N3CCC(C(=O)O)C3)cn2)COc2cc3c(cc21)OC(F)(F)O3` (stereo partly drawn) [Example 94, 1-(5-{[(7R)-2,2-difluoro-7-methyl-6,7-dihydro-2H-furo[2,3-f][1,3]benzodioxole-7-carbonyl]amino}pyrazin-2-yl)pyrrolidine-3-carboxylic acid]: under 4.70 and 8%.

As a reminder, the pEC50 is the negative decadic logarithm of the EC50, by convention in mol/L.
